In patent publication US20260124213A1, “STAPHYLOCOCCUS AUREUS PBP4 INHIBITORS AND METHOD OF USE” (UNIVERSITY OF ROCHESTER, priority 2022, published 2026):

Legend:
S. aureus strain CRB = experiment: microbe, parasite or virus in culture; assay type: cell-based, Staphylococcus aureus; details: CRB
Protocol: Fractional Inhibitory Concentration Index (FICI). Fractional inhibitory testing was performed in checkerboard format to determine whether putative PBP4 inhibitors potentiated the antimicrobial effects of β-lactams toward S. aureus strains USA300 and CRB, as previously described (Chojacnki, et al. Journal of Antimicrobial Chemotherapy, 2003, 52, 1). To do so, in triplicate 10^5 CFU of each strain (10 μL) was added to individual wells of a microtiter plate containing 90 μL MH media. […] Plates were incubated at 37° C. for 16-20 hour and the lowest concentration of each test agent that inhibited bacterial growth alone or in combination was determined by the naked eye. The fractional inhibitory concentration (FIC) index was calculated using the formula: FIC of A (MIC of drug A in combination/MIC of drug A alone)+FIC B ([…]/MIC of drug B alone). A synergistic interaction was defined as a FICI value of less than 0.5, an additive interaction was defined as a FICI value between 0.5 and 1.0, an indifferent interaction was defined as a FICI value between 1.0 and 4.0, and an antagonistic interaction was defined as a FICI value of more than 4.0.

HEPG2 cells = experiment: MTT cell viability / mammalian cytotoxicity; assay type: cell-based, human; details: 100 μM; HEPG2 approx. 2.5 × 10^5 cells/mL; Ex. 3 series
Protocol: Eukaryotic Toxicity Testing. Two rounds of eukaryotic toxicity testing were performed. Initially hits of interest were evaluated for antifungal activity in high throughput manner. To do so, 10^5 CFU of Saccharomyces cerevisiae YSB1001 cells (10 μL) were inoculated into individual wells of a microtiter plate containing yeast peptone dextrose media (88 μL) and 50 μM of each hit (2 μL). […] More extensive mammalian cytotoxicity testing was performed on the indicated highest priority hits of interest following International Organization for Standardization guidelines. Briefly, human liver epithelial cells (HEPG2) were cultured in Dulbecco's modified Eagle medium (DMEM; Fisher Scientific®) supplemented with 10% heat inactivated fetal bovine serum (FBS; Corning Life Sciences, Corning, NY) and 1% penicillin and streptomycin. Cells were incubated at 37° C. with 5% CO2 in Nunc™ tissue culture flasks (Roskilde, Denmark) until reaching 70% confluency. Cells were removed with 0.25% trypsin (Fisher Scientific®), resuspended in fresh medium, and used to seed approximately 2.5×10^5 mL^−1 cells into individual wells of a 96 well tissue culture microplate (Nunc™) containing 200 μL of fresh medium, and incubated for 24 hours. […] Mixtures were incubated for 20-24 h at 37° C. with 5% CO2, the media was removed and replaced with 100 μL fresh media and 10 μL of 12 mM (3-(4,5-dimethylthiazol-2-yl)-2,5-diphenyltetrazolium bromide (MTT) reagent (Cyquant™ Cell Viability kit; Invitrogen™, Carlsbad, CA) was added to each well. Cells were incubated at 37° C. with 5% CO2 for 2-4 hour, 85 μL of media was removed and the remainder was mixed with 50 μL DMSO and incubated for an additional 10 minutes at 37° C. in the dark. Using a SpectraMax® M5 microplate reader, cell viability was recorded as absorbance at OD540 nm. All compounds were tested in triplicate and cell viability was expressed as a percent viability of treated cells in comparison to mock treated cells. […]

For `O=C(Nc1ccc2[nH]c(-c3cccs3)nc2c1)c1ccco1` [Compound 1 (7729837)], the “Cmpd (putative PBP4 inhibitor) MIC, Alone” value (S. aureus strain CRB) was 200 µM, the “Fold-decrease in ceftobiprole resistance in combination” value (S. aureus strain CRB) was 2 and the “Cmpd concentration, Combination” value (S. aureus strain CRB; with ceftobiprole) was 50 µM. For the same compound, the “BPR (ceftobiprole) MIC, Combination” value (S. aureus strain CRB; with putative PBP4 inhibitor) was 64 µg/mL and the “Toxicity with HEPG2 Cells (cell viability)” value (HEPG2 cells) was 95±16.8%.
